From PubChem BioAssay AID330 (DTP/NCI, 2004)
“And” between values parts separate entries of the source, which are not always exact repeats. Equal entries are not always repeated. Inconclusive results and toxic doses are left out. The calls were made as follows: active = survival T/C of 150% or more; inactive = T/C below 125% in these data.

System: P388 leukemia ip, CD2F1 mice, survival T/C
Assay: NCI In Vivo Anticancer Drug Screen. Data for tumor model P388 Leukemia (intraperitoneal) in CD2F1 (CDF1) mice
Conditions: endpoint: median survival time, higher = longer survival
Procedure, shortened: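 Mice carrying the transplanted tumor received test compound or vehicle. Survival was recorded in each group, and the value is the treated-group measurement divided by that of the vehicle-treated control group.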

[1] = dose: 50.0 mg/kg/injection, schedule: Q01DX009 (ip), vehicle: saline with Tween-80
[2] = dose: 100.0 mg/kg/injection, schedule: Q01DX009 (ip), vehicle: saline with Tween-80
[3] = dose: 50.0 mg/kg/injection, schedule: Q01DX005 (ip), vehicle: saline with Tween-80
[4] = dose: 100.0 mg/kg/injection, schedule: Q01DX005 (ip), vehicle: saline with Tween-80
[5] = dose: 200.0 mg/kg/injection, schedule: Q01DX005 (ip), vehicle: saline with Tween-80
[6] = dose: 50.0 mg/kg/injection, schedule: Q01DX005 (ip), vehicle: saline
[7] = dose: 50.0 mg/kg/injection, schedule: Q01DX005 (ip), vehicle: Klucel (hydroxypropylcellulose) (HPC)
[8] = dose: 100.0 mg/kg/injection, schedule: Q01DX005 (ip), vehicle: Klucel (hydroxypropylcellulose) (HPC)
[9] = dose: 200.0 mg/kg/injection, schedule: Q01DX005 (ip), vehicle: Klucel (hydroxypropylcellulose) (HPC)

Measured: T/C

N#Cc1ccc(C(=O)C=[N+]=[N-])cc1
inactive: dose: 100.0 mg/kg/injection, schedule: Q04DX003 (ip), vehicle: Klucel (hydroxypropylcellulose) (HPC) 109 % of control | dose: 200.0 mg/kg/injection, schedule: Q04DX003 (ip), vehicle: Klucel (hydroxypropylcellulose) (HPC) 93 % of control | dose: 400.0 mg/kg/injection, schedule: Q04DX003 (ip), vehicle: Klucel (hydroxypropylcellulose) (HPC) 100 % of control

CCCCCCCCCCCCCCCCSCC(COC)COP(=O)([O-])OCC[N+](C)(C)C (stereo not given)
inactive: dose: 1.25 mg/kg/injection, schedule: Q01DX005 (oral), vehicle: saline 109 % of control | dose: 2.5 mg/kg/injection, schedule: Q01DX005 (oral), vehicle: saline 106 % of control | dose: 5.0 mg/kg/injection, schedule: Q01DX005 (oral), vehicle: saline 110 % of control | dose: 10.0 mg/kg/injection, schedule: Q01DX005 (oral), vehicle: saline 110 % of control | dose: 20.0 mg/kg/injection, schedule: Q01DX005 (oral), vehicle: saline 109 % of control | dose: 40.0 mg/kg/injection, schedule: Q01DX005 (oral), vehicle: saline 108 % of control

CN1C(=O)/C(=C2\SC(=O)N(CNc3ccc(Br)cc3)C2=O)c2ccccc21
inactive: dose: 60.0 mg/kg/injection, schedule: Q01DX005 (ip), vehicle: Klucel + Tween-80 88 % of control | dose: 240.0 mg/kg/injection, schedule: Q01DX005 (ip), vehicle: Klucel + Tween-80 89 % of control

O=C1CSC(=S)N1C1CC1
inactive: [1] 95 % of control | [2] 86 % of control | dose: 200.0 mg/kg/injection, schedule: Q01DX009 (ip), vehicle: saline with Tween-80 87 % of control

Cc1c(-c2cnccn2)ssc1=S
inactive: [3] 103 % of control | [4] 99 % of control | [5] 103 % of control

CC(C)CC(=O)CC1(C)CCC(c2ccoc2)O1 (stereo not given)
inactive: dose: 25.0 mg/kg/injection, schedule: Q01DX009 (ip), vehicle: saline with Tween-80 102 % of control | [1] 101 % of control | [2] 107 % of control

c1cc2nc(-c3ccc4nc(C5=NCCN5)[nH]c4c3)[nH]c2cc1C1=NCCN1
inactive: dose: 12.5 mg/kg/injection, schedule: Q01DX005 (ip), vehicle: saline 90 % of control | dose: 25.0 mg/kg/injection, schedule: Q01DX005 (ip), vehicle: saline 87 % of control and 90 % of control | [6] 99 % of control and 91 % of control and 97 % of control

COC(=O)c1c(OC)cc2c(Cl)c3c(c(O)c2c1C)C(=O)[C@@]1(O)C(=O)C=C(OC)[C@H](O)[C@@]1(O)C3=O
inactive: dose: 12.5 mg/kg/injection, schedule: Q01DX005 (ip), vehicle: saline with Tween-80 104 % of control | dose: 25.0 mg/kg/injection, schedule: Q01DX005 (ip), vehicle: saline with Tween-80 109 % of control | [3] 95 % of control | [4] 104 % of control | [5] 110 % of control

CC1(C)CC(C)(OC(=O)c2ccc(F)cc2)N=N1 (stereo not given)
inactive: dose: 12.5 mg/kg/injection, schedule: Q01DX009 (ip), vehicle: other 103 % of control | dose: 25.0 mg/kg/injection, schedule: Q01DX009 (ip), vehicle: other 113 % of control | dose: 50.0 mg/kg/injection, schedule: Q01DX009 (ip), vehicle: other 108 % of control | dose: 100.0 mg/kg/injection, schedule: Q01DX009 (ip), vehicle: other 113 % of control | dose: 200.0 mg/kg/injection, schedule: Q01DX009 (ip), vehicle: other 118 % of control

COc1cccc2c1CCC1=CC(=O)CCC12C (stereo not given)
inactive: [7] 102 % of control | [8] 96 % of control | [9] 93 % of control

CCCCCCCCOc1ccc(/C=C/C(C)=N/NC(N)=NC)cc1OC
inactive: dose: 7.5 mg/kg/injection, schedule: Q01DX005 (ip), vehicle: saline with Tween-80 111 % of control | dose: 15.0 mg/kg/injection, schedule: Q01DX005 (ip), vehicle: saline with Tween-80 95 % of control | dose: 30.0 mg/kg/injection, schedule: Q01DX005 (ip), vehicle: saline with Tween-80 102 % of control

COC(CN(Cc1cccs1)S(=O)(=O)c1ccc(C)cc1)OC
inactive: [7] 94 % of control | [8] 94 % of control | [9] 99 % of control

[O-]c1nn(C2OC(CO)C(O)C2O)c2cccc[n+]12 (stereo not given)
inactive: dose: 100.0 mg/kg/injection, schedule: Q01DX001 (ip), vehicle: saline 110 % of control | dose: 200.0 mg/kg/injection, schedule: Q01DX001 (ip), vehicle: saline 108 % of control | dose: 400.0 mg/kg/injection, schedule: Q01DX001 (ip), vehicle: saline 95 % of control

Nc1cccc(C(=O)c2cccc(N)c2)c1
inactive: dose: 100.0 mg/kg/injection, schedule: Q04DX003 (ip), vehicle: saline with Tween-80 100 % of control | dose: 200.0 mg/kg/injection, schedule: Q04DX003 (ip), vehicle: saline with Tween-80 95 % of control | dose: 400.0 mg/kg/injection, schedule: Q04DX003 (ip), vehicle: saline with Tween-80 100 % of control

CCCCCCC(/C=C/c1ccccc1Cl)=N\O
inactive: dose: 50.0 mg/kg/injection, schedule: Q01DX009 (ip), vehicle: Klucel (hydroxypropylcellulose) (HPC) 92 % of control | dose: 100.0 mg/kg/injection, schedule: Q01DX009 (ip), vehicle: Klucel (hydroxypropylcellulose) (HPC) 100 % of control | dose: 200.0 mg/kg/injection, schedule: Q01DX009 (ip), vehicle: Klucel (hydroxypropylcellulose) (HPC) 105 % of control

O=C1OCC2OCCC12 (stereo not given)
inactive: [6] 100 % of control | dose: 100.0 mg/kg/injection, schedule: Q01DX005 (ip), vehicle: saline 100 % of control | dose: 200.0 mg/kg/injection, schedule: Q01DX005 (ip), vehicle: saline 101 % of control

CCOC(=O)/C(O)=C/C1=CC(=O)CC(C)(C)C1
inactive: dose: 100.0 mg/kg/injection, schedule: Q04DX002 (ip), vehicle: saline with Tween-80 110 % of control | dose: 200.0 mg/kg/injection, schedule: Q04DX002 (ip), vehicle: saline with Tween-80 114 % of control | dose: 400.0 mg/kg/injection, schedule: Q04DX002 (ip), vehicle: saline with Tween-80 103 % of control

O=C1CS(=O)(=O)C(c2ccccc2Cl)N1N1C(=O)CS(=O)(=O)C1c1ccccc1Cl (stereo not given)
inactive: [3] 96 % of control | [4] 90 % of control | [5] 89 % of control
